In the supplement of paper PMC13207355:

Assays:
Conditions in all cases: exposure time: 72 h
E57 [1] = patient-derived glioblastoma stem cells of mesenchymal subtype; assay: surviving fraction (nuclei count normalised to DMSO); higher = more cells surviving (less toxic)
E28 [2] = patient-derived glioblastoma stem cells of classical subtype; assay: as above
E31 [3] = patient-derived glioblastoma stem cells of proneural subtype; assay: as above
E34 [4] = patient-derived glioblastoma stem cells of proneural subtype; assay: as above
E21 [5] = patient-derived glioblastoma stem cells of mesenchymal subtype; assay: as above
FT3469 [6] = normal neural stem cell line; assay: as above
E13 [7] = patient-derived glioblastoma stem cells of classical subtype; assay: as above
E57 [8] = assay: phenotypic distance (Euclidean, principal components) from DMSO controls (arbitrary units); higher = stronger morphological change
E28 [9] = assay: as above
E31 [10] = assay: as above
E34 [11] = assay: as above
E21 [12] = assay: as above
FT3469 [13] = assay: as above
E13 [14] = assay: as above
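Wherever phenotypic distance (Euclidean, principal components) from DMSO controls is given: cell Painting imaging in 384-well plates, CellProfiler features reduced to at least 20 principal components, Euclidean distance versus same-plate DMSO vehicle wells (0.1% v/v), median over six images per well.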
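Wherever surviving fraction (nuclei count normalised to DMSO) is given: nuclei counted by high-content imaging of Hoechst-stained cells in laminin-coated 384-well plates, relative to 0.1% DMSO vehicle wells, with staurosporine as cell-death control.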

SMILES: COc1cc([C@@H]2c3cc4c(cc3[C@H](O)[C@H]3COC(=O)[C@H]23)OCO4)cc(OC)c1OC [Podophyllotoxin]
- surviving fraction (E57 [1]; 4.1 nM): 0.0665
- surviving fraction (E57 [1]; 12.3 nM): 0.0974
- surviving fraction (E57 [1]; 37 nM): 0.0586
- surviving fraction (E57 [1]; 111.1 nM): 0.0625
- surviving fraction (E57 [1]; 333.3 nM): 0.089
- surviving fraction (E57 [1]; 1000 nM): 0.0755
- surviving fraction (E57 [1]; 3000 nM): 0.0653
- surviving fraction (E28 [2]; 4.1 nM): 0.354
- surviving fraction (E28 [2]; 12.3 nM): 0.369
- surviving fraction (E28 [2]; 37 nM): 0.324
- surviving fraction (E28 [2]; 111.1 nM): 0.265
- surviving fraction (E28 [2]; 333.3 nM): 0.22
- surviving fraction (E28 [2]; 1000 nM): 0.209
- surviving fraction (E28 [2]; 3000 nM): 0.198
- surviving fraction (E31 [3]; 4.1 nM): 0.0505
- surviving fraction (E31 [3]; 12.3 nM): 0.0728
- surviving fraction (E31 [3]; 37 nM): 0.0565
- surviving fraction (E31 [3]; 111.1 nM): 0.0446
- surviving fraction (E31 [3]; 333.3 nM): 0.0282
- surviving fraction (E31 [3]; 1000 nM): 0.0371
- surviving fraction (E31 [3]; 3000 nM): 0.0297
- surviving fraction (E34 [4]; 4.1 nM): 0.471
- surviving fraction (E34 [4]; 12.3 nM): 0.378
- surviving fraction (E34 [4]; 37 nM): 0.31
- surviving fraction (E34 [4]; 111.1 nM): 0.339
- surviving fraction (E34 [4]; 333.3 nM): 0.32
- surviving fraction (E34 [4]; 1000 nM): 0.329
- surviving fraction (E34 [4]; 3000 nM): 0.249
- surviving fraction (E21 [5]; 4.1 nM): 0.115
- surviving fraction (E21 [5]; 12.3 nM): 0.113
- surviving fraction (E21 [5]; 37 nM): 0.0947
- surviving fraction (E21 [5]; 111.1 nM): 0.0585
- surviving fraction (E21 [5]; 333.3 nM): 0.0628
- surviving fraction (E21 [5]; 1000 nM): 0.0607
- surviving fraction (E21 [5]; 3000 nM): 0.0362
- surviving fraction (FT3469 [6]; 4.1 nM): 0.517
- surviving fraction (FT3469 [6]; 12.3 nM): 0.541
- surviving fraction (FT3469 [6]; 37 nM): 0.375
- surviving fraction (FT3469 [6]; 111.1 nM): 0.377
- surviving fraction (FT3469 [6]; 333.3 nM): 0.433
- surviving fraction (FT3469 [6]; 1000 nM): 0.416
- surviving fraction (FT3469 [6]; 3000 nM): 0.379
- surviving fraction (E13 [7]; 4.1 nM): 0.153
- surviving fraction (E13 [7]; 12.3 nM): 0.182
- surviving fraction (E13 [7]; 37 nM): 0.139
- surviving fraction (E13 [7]; 111.1 nM): 0.182
- surviving fraction (E13 [7]; 333.3 nM): 0.123
- surviving fraction (E13 [7]; 1000 nM): 0.197
- surviving fraction (E13 [7]; 3000 nM): 0.112
- phenotypic distance (E57 [8]; 4.1 nM): 6.96
- phenotypic distance (E57 [8]; 12.3 nM): 6.65
- phenotypic distance (E57 [8]; 37 nM): 7.38
- phenotypic distance (E57 [8]; 111.1 nM): 5.64
- phenotypic distance (E57 [8]; 333.3 nM): 6.77
- phenotypic distance (E57 [8]; 1000 nM): 7.07
- phenotypic distance (E57 [8]; 3000 nM): 6.6
- phenotypic distance (E28 [9]; 4.1 nM): 3.02
- phenotypic distance (E28 [9]; 12.3 nM): 3.22
- phenotypic distance (E28 [9]; 37 nM): 4.05
- phenotypic distance (E28 [9]; 111.1 nM): 5.71
- phenotypic distance (E28 [9]; 333.3 nM): 5.89
- phenotypic distance (E28 [9]; 1000 nM): 6.42
- phenotypic distance (E28 [9]; 3000 nM): 6.86
- phenotypic distance (E31 [10]; 4.1 nM): 5.03
- phenotypic distance (E31 [10]; 12.3 nM): 5.75
- phenotypic distance (E31 [10]; 37 nM): 7.75
- phenotypic distance (E31 [10]; 111.1 nM): 13.3
- phenotypic distance (E31 [10]; 333.3 nM): 11.2
- phenotypic distance (E31 [10]; 1000 nM): 14.3
- phenotypic distance (E31 [10]; 3000 nM): 13.5
- phenotypic distance (E34 [11]; 4.1 nM): 4.47
- phenotypic distance (E34 [11]; 12.3 nM): 4.98
- phenotypic distance (E34 [11]; 37 nM): 6.57
- phenotypic distance (E34 [11]; 111.1 nM): 8.02
- phenotypic distance (E34 [11]; 333.3 nM): 7.55
- phenotypic distance (E34 [11]; 1000 nM): 9.53
- phenotypic distance (E34 [11]; 3000 nM): 9.18
- phenotypic distance (E21 [12]; 4.1 nM): 8.85
- phenotypic distance (E21 [12]; 12.3 nM): 8.76
- phenotypic distance (E21 [12]; 37 nM): 8.54
- phenotypic distance (E21 [12]; 111.1 nM): 8.65
- phenotypic distance (E21 [12]; 333.3 nM): 8.16
- phenotypic distance (E21 [12]; 1000 nM): 8.89
- phenotypic distance (E21 [12]; 3000 nM): 8.66
- phenotypic distance (FT3469 [13]; 4.1 nM): 4.23
- phenotypic distance (FT3469 [13]; 12.3 nM): 5.67
- phenotypic distance (FT3469 [13]; 37 nM): 4.76
- phenotypic distance (FT3469 [13]; 111.1 nM): 6.26
- phenotypic distance (FT3469 [13]; 333.3 nM): 5.78
- phenotypic distance (FT3469 [13]; 1000 nM): 5.4
- phenotypic distance (FT3469 [13]; 3000 nM): 6.63
- phenotypic distance (E13 [14]; 4.1 nM): 6.81
- phenotypic distance (E13 [14]; 12.3 nM): 7.76
- phenotypic distance (E13 [14]; 37 nM): 6.3
- phenotypic distance (E13 [14]; 111.1 nM): 8.14
- phenotypic distance (E13 [14]; 333.3 nM): 7.56
- phenotypic distance (E13 [14]; 1000 nM): 9.37
- phenotypic distance (E13 [14]; 3000 nM): 9.25
